Measured values reported in article PMC10545747, “Development of cyclopeptide inhibitors of cGAS targeting protein-DNA interaction and phase separation” (Nature Communications, 2023).
Several values for one entry are separate records, joined by “and”; a condition that tells them apart may be missing. Equal entries are not always repeated. Square brackets hold non-standard residues; d marks the D form. Peptide text beside a SMILES is read from it.

What was measured:
[1] = target: T1, hcGAS-FL and Cy3-ISD (Homo sapiens, UniProt Q8N884); assay: In vitro phase separation assay (cGAS-DNA condensates); format: biochemical; conditions: for Droplets (%), Fig. S6b: hcGAS-FL 100nM, Cy3-ISD 100nM; for Droplets (%), Fig. 4e: hcGAS-FL 500 nM, Cy3-ISD 500 nM; for Droplets (%), Fig. S6d: hcGAS-FL 1 μM, Cy3-ISD 1 μM
T1 construct: The gene encoding full-length human cGAS (hcGAS-FL); 6xHis-SUMO (N, cleaved yes); made in house; host or cells: Escherichia coli BL21 (DE3)
Procedure: Purified hcGAS-FL and Cy3-labeled DNA (Cy3-ISD) with the indicated concentrations were mixed with DMSO (0.1%) or indicated doses of XQ2 in 96-well plates (JingAn Biological) pre-coated with 20 mg/ml BSA (Sigma). Mixtures were incubated in buffer (20 mM Tris-HCl, pH 7.5, 150 mM NaCl and 1 mg/ml BSA) with standing at 37 °C in a total reaction volume of 50 μL. Phase-separated droplets were imaged at the indicated time by using Nikon A1R+ confocal microscope with a 60× oil objective, Nikon A1 camera, and X-Cite 120LED laser. Images were analyzed using FIJI software. The number of droplets was measured as the percentage of the imaging area occupied by Cy3-labeled components, and was plotted using GraphPad Prism 8.

[2] = system: HSV-1-infected WT mice; assay: HSV-1 infection of WT mice (serum ELISA, brain qPCR, IHC); format: in vivo, mouse; design: brain HSV-1 mRNA, qPCR, Fig. 6d / brain HSV-1(UL5) mRNA, qPCR, Fig. 6d: unit not given here
Procedure: Fig. 6 XQ2B attenuates the host innate antiviral response in vivo. a Chemical structure of XQ2 and XQ2B. b, c WT mice (n = 7) were injected intravenously with DMSO or XQ2B (10 mg/kg) for 3 h, and then administrated intravenously with HSV-1 at 1 × 10^7 pfu per mouse for 6 h. Serum from mice was collected for ELISA analysis of the levels of IFN-β (b) and CXCL10 (c). p = 0.0013 (b); p = 0.0175 (c). d Brains from mice (n = 6) in (b, c) were collected for qPCR analysis of the induction of HSV-1 and HSV-1(UL5) mRNA. p = 0.0287 (HSV-1); p = 0.0136 (HSV1-UL5). e Brains from mice in (b, c) were collected for immunohistochemistry (IHC) analysis with an anti-HSV-1 antibody. Tissue sections were visualized using microscopy. Scale bar, 25 μm. Data are representative of two independent experiments in (b–e). […] Source data are provided as a Source Data file.
(§1) The indicated cells were stimulated with either ISD (Sangon Biotech), HSV-1 (Provided by Dr. Zhengfan Jiang), HSV60mer (Sangon Biotech), SATE-cddA[70], 2’3’-cGAMP (Invivogen, Cat# tlrl-nacga23-1), ADU-S100 (MedChemExpress, Cat# HY-12885A) or Poly(I:C) (Invivogen, Cat# tlrl-pic) after XQ2 or XQ2B treatment. Total RNA was isolated from indicated cells that incubated with the drugs for indicated time or mice tissues by using NucleoZOL reagent (MACHEREY-NAGEL) according to the manufacturer’s instructions. The quantifications of mRNA levels were carried out by real-time PCR using a PerfectStart® Uni RT&qPCR Kit (TransGen Biotech) on the QuantStudio 5 qPCR machine (Applied Biosystems). Samples were carried out in triplicate and the target CT values were normalized to GAPDH CT values. Primers of qPCR used in this study can be found in Supplementary Table S2.
THP1 cells were seeded into 96-well plates, and cell culture supernatants were collected and analyzed by ELISA kits for human IFNβ levels (R&D Systems, Cat# DY814-05) and human CXCL10 levels (R&D Systems, Cat# DY266-05) according to the manufacturer’s instructions. Mice serum was collected and analyzed by ELISA kits for mouse IFNβ levels (R&D Systems, Cat# DY8234-05) and mouse CXCL10 levels (R&D Systems, Cat# DY466-05) according to the manufacturer’s protocols.
Tissues were resected and fixed successively in 4% paraformaldehyde, and embedded in paraffin according to the standard procedure, and then sectioned into 10-μm slices and placed on positively charged microscope slides. Sections of the brain were subjected to immunohistochemical (IHC) staining with an anti-HSV-1 antibody (Abcam, 1:100) and HRP-conjugated anti-rabbit IgG antibody (Cell Signaling, Cat# 7074, 1:200) according to standard procedures. Sections of the heart, stomach, tongue, kidney and muscle were stained with hematoxylin and eosin. Tissue sections were visualized using an Olympus IX73 microscope (20× Objective).

[3] = system: Trex1 knockdown L929 cells; assay: qPCR of Ifnb1 and Cxcl10 mRNA after Trex1 siRNA; format: cell-based, mouse
Procedure: as §1
siRNA of TREX1 (siTREX1) was transfected into the indicated cells by Lipofectamine RNAiMAX (Invitrogen) according to the manufacturer’s instructions. Human siTREX1, mouse siTrex1 and negative control siRNAs were purchased from Sangon Biotech. The sequences of siRNAs oligonucleotides can be found in Supplementary Table S2.
Supplementary Fig. 9. XQ2B reduces interferon expression induced by Trex1 deficiency. […]
Trex1 knockdown L929 cells were treated with DMSO or XQ2B (20 μM) for 24 h, and the mRNA levels of Trex1 (c),
Ifnb1 and Cxcl10 (d) mRNA was measured by qPCR. (c) p < 0.0001, (d) p = 0.003 (Ifnb1); p = 0.0003 (Cxcl10). (e, f) […]
Source data are provided as a Source Data file.

[4] = XQ2B 10 mg/kg i.v., individual mice

T1 sequence (Q8N884 whole entry): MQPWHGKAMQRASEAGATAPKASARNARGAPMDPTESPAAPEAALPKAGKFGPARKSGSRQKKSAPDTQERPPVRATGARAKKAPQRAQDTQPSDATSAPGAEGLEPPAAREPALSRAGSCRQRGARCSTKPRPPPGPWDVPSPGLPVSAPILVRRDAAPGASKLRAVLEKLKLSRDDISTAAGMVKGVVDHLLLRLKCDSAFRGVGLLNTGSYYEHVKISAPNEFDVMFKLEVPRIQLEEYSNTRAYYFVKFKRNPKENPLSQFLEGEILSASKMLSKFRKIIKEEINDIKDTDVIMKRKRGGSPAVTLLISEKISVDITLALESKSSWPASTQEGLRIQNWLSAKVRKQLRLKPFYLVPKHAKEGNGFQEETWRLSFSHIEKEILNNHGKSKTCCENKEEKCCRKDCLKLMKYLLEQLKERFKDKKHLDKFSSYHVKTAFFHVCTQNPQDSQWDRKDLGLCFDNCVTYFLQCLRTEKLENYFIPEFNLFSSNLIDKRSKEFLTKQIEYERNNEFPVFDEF

SMILES	DNA-induced liquid phase condensation of cGAS [1]	Droplets (%), Fig. S6b ([1]; XQ2 10 μM)	Droplets (%), Fig. S6b ([1]; XQ2 20 μM)	Droplets (%), Fig. S6b ([1]; XQ2 40 μM)	Droplets (%), Fig. 4e ([1]; 30 min 37 °C, XQ2 10 μM)	Droplets (%), Fig. 4e ([1]; XQ2 20 μM)	Droplets (%), Fig. 4e ([1]; XQ2 40 μM)	Droplets (%), Fig. S6d ([1]; XQ2 10 μM)	Droplets (%), Fig. S6d ([1]; XQ2 20 μM)	Droplets (%), Fig. S6d ([1]; XQ2 40 μM)	production of IFN-β and CXCL10 upon HSV-1 infection in mice ([2]; 10 mg/kg intravenous)	virus infection in brain tissues of mice ([2]; 10 mg/kg intravenous)	serum IFN-β, ELISA, Fig. 6b ([2]; XQ2B 10 mg/kg i.v. 3 h before HSV-1 1 × 10^7 pfu i.v., 6 h, individual mice)	serum CXCL10, ELISA, Fig. 6c ([2]; XQ2B 10 mg/kg i.v., HSV-1 6 h, individual mice)	brain HSV-1(UL5) mRNA, qPCR, Fig. 6d [2, 4]	brain HSV-1 mRNA, qPCR, Fig. 6d [2, 4]	Relative mRNA level Cxcl10 ([3]; Fig. S9d, Trex1 knockdown (siTrex1 +) L929 cells, XQ2B +, individual replicates, siTrex1 alone 5.56-7.04)	Relative mRNA level Ifnb1 ([3]; Fig. S9d, Trex1 knockdown (siTrex1 +) L929 cells, XQ2B +, individual replicates, siTrex1 alone 23.9-27.1)	expression of Ifnb1, Cxcl10 with Trex1-siRNA ([3]; L929, 20 μM, 24 h)
CC(C)C[C@@H]1NC(=O)[C@H](CCCNC(=N)N)NC(=O)[C@H](C(C)C)NC(=O)[C@@H]2CCCN2C(=O)[C@@H](Cc2ccccc2)NC(=O)[C@H](CC(C)C)NC(=O)[C@H](CCCNC(=N)N)NC(=O)[C@H](C(C)C)NC(=O)[C@H](C)NC(=O)[C@@H](Cc2ccccc2)NC1=O [XQ2, Cyclo (LfAVRLfPVR)] (cyclo(L[dF]AVRL[dF]PVR))	efficiently suppressed DNA-induced liquid phase condensation of cGAS in a dose-dependent manner	33.0922% and 37.8074% and 43.9421%	10.262% and 16.2032% and 13.5624%	8.642% and 8.102% and 4.321%	73.0692% and 66.6865% and 62.8824%	40.7983% and 55.7848% and 51.751%	25.4542% and 20.5523% and 21.4459%	79.2214% and 80.5313% and 77.1189%	68.3204% and 65.6495% and 68.2188%	48.2853% and 49.5952% and 47.6049%	–	–	–	–	–	–	–	–	–
CC(C)C[C@@H]1NC(=O)[C@H](CCCNC(=N)N)NC(=O)[C@H](C(C)C)NC(=O)[C@@H]2CCCN2C(=O)[C@@H](Cc2ccccc2)NC(=O)[C@H](CC(C)C)NC(=O)[C@H](CCCNC(=N)N)NC(=O)[C@H]([C@@H](C)O)NC(=O)[C@H](C)NC(=O)[C@@H](Cc2ccccc2)NC1=O [XQ2B] (cyclo([dF]ATRL[dF]PVRL))	–	–	–	–	–	–	–	–	–	–	significantly impaired the production of IFN-β and CXCL10 upon HSV-1 infection in mice	promoted virus infection in the brain tissues of mice	234.609 and 247.685 and 151.05 and 229.558 and 128.472 and 521.967 and 514.758	2266.42 and 1272.19 and 1516.42 and 1969.73 and 1635.92 and 1666.83 and 2034.41	2.362 and 11.4426 and 5.671 and 29.1839 and 18.1733 and 12.9008	4.055 and 17.5547 and 15.5667 and 41.0988 and 9.75 and 4.86	1.176 and 1.276 and 1.118	15.103 and 18.4861 and 15.5105	markedly inhibited the expression of these genes in mouse L929 and human THP1 cells with Trex1-siRNA
